Like-named read-outs stand apart in the source and are kept apart here.
Key:
primary astrocytes = assay: High throughput screening for lactate secretion: acidification of extracellular medium (SNARF5); format: cell-based, mouse; parameters: key to Score / HTS Score (lactate) / HTS Score (SNARF5) / Score_SNARF: fraction of positive control activity (positive control = 100%); conditions: for Score_SNARF: primary screening confirmation (SNARF5); for Score / HTS Score (SNARF5) / Emax at 10 µM: 10 uM, 90 min; for Emax at 10 µM: Mus musculus, Astrocyte, 1.5 h
Procedure, shortened: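 Mouse cortical astrocytes (DIV17) stimulated 90 min at 10 uM compound (1% DMSO) in low-bicarbonate DMEM, 5 mM glucose, with SNARF-5F; extracellular acidification read as 630/580 nm emission ratio (exc 480 nm). Duplicates; score as % of CCCP 2 uM control, hits >3× summed SD above DMSO.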

astrocytes [1] = assay: Extracellular lactate quantification; format: cell-based, mouse; conditions: for Score_LACTATE: Appendix I, secondary screening, dosage of extracellular lactate; for EC50: Mus musculus, Astrocyte
Procedure, shortened: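 Primary cortical astrocytes from 1–2-day-old OF1 mouse pups, used at DIV14–17, stimulated 90 min at 37 °C in D5030 with 5 mM glucose, compounds 0–100 μM. Extracellular L-lactate measured enzymatically (LDH/NAD, pH 10, 1 h 37 °C) by NADH fluorescence (ex 340/em 450) against L-lactate standard curve.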

astrocytes [2] = assay: MTT viability assay; format: cell-based; conditions: Mus musculus, Astrocyte; CDC54K hits; cellular toxicity, 0-200 uM
Procedure: (§1) Primary cultures of cerebrocortical astrocytes were obtained from 1-2-day-old OF1 mouse pups (Charles River Laboratories). Briefly, cortices were isolated and minced in small pieces under a dissecting microscope. The cells were incubated for 30 min at 37° C. in a solution containing 20 U/ml of papain enzyme (Worthington Biochemical), L-cysteine 1 mM (Sigma), and 10 kU/ml DNase I (Worthington Biochemical) for an enzymatic dissociation. Papain activity was stopped by the addition of fetal calf serum (FCS) to the solution, and a single-cell suspension was then obtained by mechanical dissociation, which consisted in cells trituration in a DMEM (D7777, Sigma-Aldrich) medium (supplemented with 44 mm NaHCO3, and 10 ml/L antibiotic/antimycotic solution) containing 10% FCS. The cells were seeded at an average density of 6×10^4 cells/cm^2 in poly-D-lysine-coated 96, 12 or 6-well culture plates, depending on their use, and incubated at 37° C. in a humidified atmosphere containing 5% CO2/95% air. Culture medium was renewed twice per week. Cells were stimulated and harvested between DIV14 and DIV17, when confluence and cell growth were optimal.
For cell toxicity determination, astrocytes in 96-well plates were stimulated 24 h (37° C. 5% CO2/95% air) with a gradient ranging from 0.1 to 200 μM of tested compounds. After stimulation, 5 mg/ml thiazol blue tetrazolium bromide (MTT, Sigma-Aldrich) in warm D5030 complete medium was added to each well, and cells were incubated for 4 h at 37° C. (5% CO2). The medium was then removed by aspiration, and the reaction was stopped by the addition of 50 μl DMSO per well.
The amount of reduced MTT (formazan) solubilized in DMSO was then determined spectrophotometrically using absorbance at 570 nm (Safire 2; Tecan).
MTT cellular viability assay was performed on astrocytes exposed to molecules from the Prestwick library (Prestwick hits; concentrations ranging from 0 uM to 200 uM).
MTT cellular viability assay was performed on astrocytes exposed to CDC54K hits (concentrations ranging from 0 uM to 200 uM).

astrocytes [3] = assay: Production of H2O2 (mitochondrial activity); format: cell-based; conditions: Mus musculus, Astrocyte, 1.5 h; CDC54K hits; 0-200 uM, 90 min
Procedure: as §1
Hydrogene peroxide (H2O2) released in the supernatant is detected enzymatically with Amplex red (Zhou, Diwu et al. 1997). Oxidation of Amplex red is catalysed by the horseradish peroxidase in presence of H2O2 into highly fluorescent resorufin. Fluorescence measure is read at 545 nm extinction, 590 nm emission. The amount of H2O2 was expressed relatively to the proteins content extracted from the cells in culture. […]
Mitochondrial respiration in astrocytes was measured through production of H2O2 at 90 min after stimulation with CDC54K hits (ranging from 0 to 200 uM).

[4] = Appendix I, primary screening, relative to positive control
[5] = CDC54K hits, relative to positive control CCCP 2 uM
[6] = 1.5 h, CDC54K hits, 0-100 uM, 90 min, read-out: Lactate EC50
[7] = Appendix I, primary screening, relative to positive control, read-out: Score
[8] = CDC54K hits, relative to positive control CCCP 2 uM, read-out: HTS Score (SNARF5)

EC50 (astrocytes [1]; [6]) [µM]	IC50 (astrocytes [3]) [µM]	EC50 (astrocytes [1]; Appendix II, lactate secretion, read-out: EC50) [µM]	Compound	Score_SNARF (primary astrocytes; Appendix I)	Score (primary astrocytes; [4])	HTS Score (SNARF5) (primary astrocytes; [5])	Score_LACTATE (astrocytes [1])	IC50 (astrocytes [2]) [µM]	Emax at 10 µM (primary astrocytes; [7]) [%]	Emax at 10 µM (primary astrocytes; [8]) [%]	Score Lact. (astrocytes [1]; Appendix II)
8.7	> 200		CC(=O)N1CCc2sc(S(=O)(=O)N3CCN(c4ccccc4C)CC3)cc2C1 [P025-0159]	0.8007	0.9535	0.953	0.9232	> 200			
25.3	48.6		CCn1nccc1-c1csc(S(=O)(=O)Nc2ccc(Cl)cc2F)c1 [L924-1031]	0.8713	0.9286	0.929	1.632	> 200			
0.5	> 200		Cc1ccccc1NC(=O)C1CCCN(c2ncnc3oc(C)c(C)c23)C1 (stereo not shown) [F228-0422]	0.7702	1.057	1.058	0.6364	> 200			
7.9	> 200		O=C1CCCN1c1ccc(S(=O)(=O)Nc2cccc(/C=C/c3ccccn3)c2)cc1 [T5644989]	0.8385	0.6796	0.68	0.7859	> 200			
12.2	> 200		O=S(=O)(Nc1cc(F)cc(F)c1)c1ccc2ccccc2c1 [T5884038]					70.5	72.1	72.1	
3	> 200		c1ccc2c(c1)CCN(c1ncnc3sccc13)C2 [T0517-8250]					140	95.7	95.7	
1.8	> 200		COc1ccccc1[N+]1=C2CCCCCN2C(O)(c2ccc(C)cc2)C1 (stereo not shown) [K404-0834]					150	112	112	
11.5	> 200	6.83	N#Cc1ccc(C(=O)N2CCC(Nc3ncnc4c3CCC4)C2)cc1 (stereo not shown) [T636-2387]			0.445		> 200	44.5		0.30
11.5	> 200		Cc1nc2ccc(NS(=O)(=O)c3cccc(F)c3)cc2s1 [T6937001]	0.8557	0.8094	0.809	0.9088	> 200			
3.1	185		COc1ccc(Nc2nc(N3CCOCC3)c3ccccc3n2)cc1.Cl [T0508-5190]					75	45.9	45.9	
11	> 200		COc1cc(C)c(Cl)cc1S(=O)(=O)NCc1ccncc1 [T5580243]	0.8565	0.8528	0.853	0.7229	> 200			
7.9	> 200		CCc1nc(-c2csc(S(=O)(=O)NCc3ccc4c(c3)OCO4)c2)no1 [L287-0468]	0.6592	0.5971	0.597	0.6179	> 200			
